This note sets out measurements from patent publication US6653338B2 (Applied Research Systems ARS Holding N.A., priority 1998, dated 2003).

A word on the EC50: it is the concentration that produces a half-maximal response.

Experiment [1] deals with T1, recombinant FSH receptor stably transfected and expressed in Chinese Hamster Ovary cells (Homo sapiens, UniProt P23945).
T1 construct: expressed in transfected cells; host or cells: Chinese Hamster Ovary (CHO) cells, stably transfected, with CRE-luciferase reporter
T1 sequence (P23945 18-695): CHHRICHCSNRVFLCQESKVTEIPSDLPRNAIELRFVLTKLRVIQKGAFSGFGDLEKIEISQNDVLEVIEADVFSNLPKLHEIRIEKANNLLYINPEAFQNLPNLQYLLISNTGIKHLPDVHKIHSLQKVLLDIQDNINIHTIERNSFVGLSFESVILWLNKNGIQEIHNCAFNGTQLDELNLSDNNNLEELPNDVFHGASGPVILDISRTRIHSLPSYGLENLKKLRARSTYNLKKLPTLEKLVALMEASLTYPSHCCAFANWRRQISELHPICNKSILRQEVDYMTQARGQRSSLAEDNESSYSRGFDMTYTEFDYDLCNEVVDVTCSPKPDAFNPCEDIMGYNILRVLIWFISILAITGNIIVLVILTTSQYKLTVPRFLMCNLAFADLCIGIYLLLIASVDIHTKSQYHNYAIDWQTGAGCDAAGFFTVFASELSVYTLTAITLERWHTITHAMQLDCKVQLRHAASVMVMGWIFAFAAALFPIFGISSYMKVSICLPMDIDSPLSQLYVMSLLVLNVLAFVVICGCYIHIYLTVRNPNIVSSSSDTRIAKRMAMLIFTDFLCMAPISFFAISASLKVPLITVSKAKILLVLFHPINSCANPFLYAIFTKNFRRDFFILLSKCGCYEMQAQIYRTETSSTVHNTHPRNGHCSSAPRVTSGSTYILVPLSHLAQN
The experiment in a line: FSH assay: CHO luciferase FSHR (CRE-luciferase reporter, LDR curves). The format is cell-based. Particulars: FIG. 6, from the graph; duplicate samples; luciferase luminescence in CHO FSHR cells. For orientation: Reporter assays use an easily measured gene product as a stand-in for the process of interest.
From the text: Compounds were screened for agonist activity at the FSH receptor using the recombinant FSH receptor stably transfected and expressed in Chinese Hamster Ovary cells (CHO cells) essentially as described in the work by Kelton, et al. (Molecular and Cellular Endocrinology, 1992, 89, 141-151). […] An agonist at the FSH receptor increases cAMP in the cell, which results in activation of CREB (cAMP response element binding protein). This molecule interacts with the CRE element upstream of the gene and results in increased transcription of the genes downstream of the element. The substrate for luciferase (Packard Instrument Company, Meriden, Conn., U.S.A.) was added to the cells after appropriate incubation with the compounds of the invention or FSH (used as a positive control). The amount of luciferase expressed was measured by quantitating the luminescence produced by the enzyme using a TopCount scintillation/luminescence counter running in single photon counting mode. A compound that acts as an agonist at the receptor should produce light from the treated cells in proportion to its concentration within the incubation. Luminescence should be saturable at high concentrations of the compound.
The compounds of the invention, in deepwell plates (Master plates) were loaded on the robotic deck along with the appropriate number of assay plates and daughter plates. A 10 μl aliquot from each master plate was transferred to the corresponding daughter plate and 90 μl of DME/F12 was added and mixed within each well. 20 μl was then removed from the daughter plate and dispensed into the assay plate. […] 100 μl of Luclite (prepared as described by the manufacturer) was added to each well and the plate was shaken gently for 40 s prior to placement in the Topcount plate reader. After allowing 3.5 min for the plate to dark-adapt within the machine, the amount of luminescence generated was quantitated using Single Photon Counting mode. […]

The subject of experiment [2] is primary rat granulosa cells. The experiment in a line: primary rat granulosa cell bioassay (estradiol production by RIA). The format is cell-based. Particulars: FIG. 7; for estradiol production versus dose: concentrations between 200 nM and 5 μM, decrease in production above this concentration; for EC50: Rattus norvegicus, estradiol in cell supernatants by RIA, read-out: EC50 of stimulated estradiol production. As for the experimental part:
In this in vitro assay, conversion of androstendione to estrogen by granulosa cells in the presence of FSH was measured for compounds XVI and XVII. For comparison, FSH was also tested in the assay.
Cells were plated at 5000, 8000, 10,000 and 20,000 cells/ well/ 200 μl of GAB medium on poly-D-lysine-coated 96-well tissue culture plates. Plates were incubated at 37° C. in a 5% CO2/95% air incubator for 3 days. Cultures were washed prior to stimulation with FSH or LH. 50 μl of 4 X concentrations of rhFSH, rhLH or forskolin was added to the cultures. To define the range of the dose response curve the rhFSH was diluted so that the final concentration on the cells was between 10^−7 to 10^−15 M with three doses per log at 1, 2 and 5. Forskolin was diluted so that the final concentration on the cells was 1 μM. Cells were incubated @ 37° C. in 5% CO2. Three days later, cell supernatants were collected and diluted 1:100 in GAB medium for measurement of estradiol by RIA. The RIA was performed according to manufacturer's directions except that an estradiol standard was prepared in absolute ethanol at 100 ng/mL and then further diluted in GAB medium, instead of kit buffer. The concentration of hormone was plotted on the X-axis against the amount of estradiol produced by the cells on the Y-axis using Origin graphics software.
Results of the assay using media only are also shown.

For `CCCCCc1ccc(C(=O)N2CCCC2C(=O)Nc2ccc3c(c2)c2ccccc2n3CC)c(=O)o1` (stereo not shown) [compound XVI, 1-[(2-Oxo-6-pentyl-2H-pyran)-3-carbonyl]pyrrolidine-2-carboxylic acid-3-(9-ethylcarbazolyl)amide], in experiment [1], the EC50 stood at 0.0388 µM. Further, in experiment [2], the “estradiol production versus dose” value was “increasing estradiol production with increasing dose” and the EC50 stood at 1.4 µM.

On to `CCCCCc1ccc(C(=O)N2CCCCC2C(=O)Nc2ccc3c(c2)c2ccccc2n3CC)c(=O)o1` (stereo not shown) [compound XVII, 1-[(2-Oxo-6-pentyl-2H-pyran)-3-carbonyl]piperidine-2-carboxylic acid-3-(9-ethylcarbazolyl)amide], for which the EC50 in experiment [1] was 0.0039 µM. In addition, in experiment [2], the “estradiol production versus dose” value was “increasing estradiol production with increasing dose” and the EC50 amounted to 1.2 µM.

As to `CCCCCc1ccc(C(=O)N2CC(O)CC2C(=O)Nc2ccc3c(c2)c2ccccc2n3CC)c(=O)o1` (stereo not shown) [compound XIX, 1-[(2-Oxo-6-pentyl-2H-pyran)-3-carbonyl]-4-hydroxypyrrolidine2-carboxylic acid-3-(9-ethylcarbazolyl)amide], the EC50 in experiment [1] was determined as 1.12 µM.
